{"source": "patent US6887903B1", "about": "“N-(2-aryl-propionyl)-sulfonamides and pharmaceutical preparations containing them” (Dompe S.p.A., priority 1998, dated 2005)", "key": {"CO enzymes": {"tested_on": "CO enzymes", "conditions": "ketoprofen enantiomers; cited from earlier work"}, "[1]": {"tested_on": "human PMNs leukocytes stimulated by IL-8", "experiment": "Cytosol [Ca2+]i variations in human PMN stimulated by IL-8 (Fura-2AM)", "type": "cell-based", "conditions": "for [Ca2+]i response, % compared with basal values (basal normalized at 100): compound 10^−6 M + IL-8 50 ng/mL, mean of responsive cells with SEM, PMN from 3 donors; for percentage of non-responsive cells: pretreated with compound 10^−6 M, IL-8 50 ng/mL (30% with only IL-8)", "experimental": "(§1) The compounds of the invention were studied using PMN cells obtained by sedimentation of heparinized blood from healthy volunteers on dextran; the mononuclear cells were removed by means of Ficoll/Hypaque whereas erythrocytes were removed by treatment with hypotonic solutions. Cell viability of PMN leukocytes was calculated by exclusion with Turk and Trypan Blue, while the percentage of PM-nucleates on the cytocentrifugate was evaluated upon staining with Diff Quinck (W. J. Ming et al., J. Immunol., 138, 1469, 1987).\n(§2) In each of the “in vitro” tests subsequently described, PMN were incubated with the compounds of the invention for 10 minutes at a temperature of 37° C.\n(§3) In the chemotaxis tests and in those for evaluating cytosol levels of the Ca^2+ ion, human recombinant IL-8 (Pepro Tech.) was used as stimulating agent: the freeze-dried protein was dissolved in HBSS (Hank's balanced salts solution) at a concentration of 100 ng/mL and was used after dilution in HBSS to concentrations of 10 ng/mL in the chemotaxis tests and of 25-50 ng/mL in the evaluation of [Ca^2+]i cell modifications.\nCytosol variations of [Ca^2+]i were determined according to the experimental model described by C. Bizzarri et al., (Blood, 86, 2388, 1995), using slides containing adhered PMN added with 1 μM Fura-2AM to evaluate [Ca^2+]i variations in actual time. In their turn, PMN cytocentrifugates were resuspended in RPMI 1640 medium with 5% FCS (bovine foetal serum) at a concentration of 3×10^6/mL and then inoculated (plated) on round glass slides of 25 mm diameter which were placed in incubator for 30 min. at 37° C. After three subsequent washings with BSS (Balanced salts solution) to remove the non adherent cells, all of the adherent cells were further incubated for a maximum of 4 hours before adding Fura-2AM.\nBy way of example, results obtained with R(−)-N-2-[3-(benzoylphenyl)-propionyl])-methanesulfonamide (DF 1661) and R(−)-N-2-[(4-Isobutylphenyl)-propionyl]-methanesulfonamide (DF 1681) using human PMNs leukocytes from 3 different donors are reported in the subsequent table. These leukocytes were considered responsive to IL-8 (50 ng/mL) when [Ca^2+]i was higher than the basal value by 34% (normalized at 100) in response to the stimulus.\nThe responses, expressed as % compared with [Ca^2+]i basal values, are the mean of the values of the responsive cells and include standard error (SEM); n is the number of replications. During these tests, the percentage of non-responsive cells was different in the different groups: 30% in the group treated with only IL-8, 40% in the group pretreated with DF 1661 and 70% in the group pretreated with DF 1681."}, "[2]": {"tested_on": "PMN human leukocytes stimulated by f-MLP", "experiment": "Chemotaxis of human PMN induced by f-MLP", "type": "cell-based", "conditions": "f-MLP 10^−8 M; DF 1681 from 10^−6 to 10^−7 M", "experimental": "as §1, §2\n(§4) In the chemotaxis test (according to W. Falket et al., J. Immunol. Methods, 33, 239, 1980) PVP filters of […] porosity and a plexigas microcamera suitable to perform 48 replications were used. The microcamera consists of a plexiglas piece containing 48 wells, each of 25 μL capacity, and is equipped with a cover, in its turn containing 48 pores arranged so that, once the lid has been placed on and screwed to the underneath part, 50 μL capacity top compartments are formed in the microcamera.\n(§5) Equal concentrations of the tested compounds were placed in the top wells containing the PMN suspension and in the lower ones, which contained the carrier optionally added with IL-8 (or a different stimulating agent)."}, "[3]": {"tested_on": "PMN human leukocytes stimulated by C5a", "experiment": "Chemotaxis of human PMN induced by C5a", "type": "cell-based", "conditions": "C5a 10^−9 M; DF 1681 from 10^−6 to 10^−7 M", "experimental": "as §1, §2, §4, §5"}, "[4]": {"tested_on": "PMN human leukocytes stimulated by interleukin 8", "experiment": "Chemotaxis of human PMN induced by IL-8", "type": "cell-based", "conditions": "IL-8 10 ng/mL; concentration range from 10^−6 to 10^−11 M; mean ±S.D. of 3 independent tests", "experimental": "as §1, §2, §3\nIn the chemotaxis test (according to W. Falket et al., J. Immunol. Methods, 33, 239, 1980) PVP filters of […] porosity and a plexigas microcamera suitable to perform 48 replications were used. […]"}, "[5]": {"tested_on": "human neutrophils stimulated by complement C5a", "conditions": "concentration range of 50 to 330 nM; cited from earlier work"}, "[6]": {"tested_on": "human neutrophils stimulated by IL-8", "conditions": "IL-8 1 nM; read-out: IC50 of blockage of chemotaxis stimulated by IL-8; cited from earlier work"}, "[7]": {"tested_on": "human neutrophils stimulated by GROα", "conditions": "GROα 10 nM; read-out: IC50 of blockage of chemotaxis stimulated by GROα; cited from earlier work"}}, "data": [{"smiles": "C[C@@H](C(=O)O)c1cccc(C(=O)c2ccccc2)c1", "note": "(single isomer, unassigned) [enantiomer (R)]", "values": [{"measurement": "lower potency of enantiomer (R) compared with enantiomer (S) as CO enzymes inhibitor", "setting": "CO enzymes", "result": "10-100 times"}]}, {"smiles": "C[C@@H](C(=O)NS(C)(=O)=O)c1cccc(C(=O)c2ccccc2)c1", "note": "[DF 1661]", "values": [{"measurement": "[Ca2+]i response, % compared with basal values (basal normalized at 100)", "setting": "[1]", "result": "184 + 16 (n = 10) %"}, {"measurement": "percentage of non-responsive cells", "setting": "[1]", "result": 40, "unit": "%"}]}, {"smiles": "CC(C)Cc1ccc([C@@H](C)C(=O)NS(C)(=O)=O)cc1", "note": "[DF 1681, R(−)-N-[2-(4-Isobutylphenyl)propionyl]-methanesulfonamide]", "values": [{"measurement": "[Ca2+]i response, % compared with basal values (basal normalized at 100)", "setting": "[1]", "result": "159 + 16 (n = 10) %"}, {"measurement": "percentage of non-responsive cells", "setting": "[1]", "result": 70, "unit": "%"}, {"measurement": "inhibition of chemotaxis induced by f-MLP (FIG. 2)", "setting": "[2]", "result": "selectivity inhibit IL-8-induced chemotaxis instead of chemotaxis induced by C5a (10^−9 M) or by f-MLP"}, {"measurement": "inhibition of chemotaxis induced by C5a (FIG. 2)", "setting": "[3]", "result": "selectivity inhibit IL-8-induced chemotaxis instead of chemotaxis induced by C5a"}, {"measurement": "inhibition of chemotaxis induced by IL-8 (number of migrated PMN, FIG. 1)", "setting": "[4]", "result": "dose-dependently inhibits chemotaxis induced by IL-8"}]}, {"smiles": "O=C(Nc1ccc([N+](=O)[O-])cc1O)Nc1ccccc1Br", "note": "[N-(2-hydroxy-4-nitrophenyl)-N′-(2-bromo-phenyl)urea]", "values": [{"measurement": "blockage of C5a-stimulated chemotaxis", "setting": "[5]", "result": "but not that of complement C5a-stimulated chemotaxis"}, {"measurement": "IC50", "setting": "[6]", "result": "20 to 60", "unit": "nM"}, {"measurement": "IC50", "setting": "[7]", "result": "20 to 60", "unit": "nM"}]}]}
